Values after ≈ are worked out from the molar mass of the structure shown.
Key:
[1] = test system: BT474 (human breast carcinoma); assay: Methylene Blue Growth Inhibition Assay; type: cell-based; conditions: BT-474, 72 h, BT474, 3 days
Description: (§1) Tumor cell lines used in this assay were BT474 (human breast carcinoma) and LNCaP (lymph node metastasis of prostate cancer). HFF (normal human foreskin fibroblast) was also included. All cell lines were cultured in RPMI 1640 media (Invitrogen Corporation 22400-071) containing 10% Fetal Bovine Serum (FBS) at 37° C. in a humidified 5% CO2 incubator. Cells were harvested using trypsin/EDTA, counted using a hemacytometer and plated in 96-well tissue culture plates (Costar 35-3075), 100 uL per well, at the following densities: BT474 15,000 cells/well, LNCaP 5,000 cells/well and HFF 5,000 cells/well. 10 mM stocks of compounds in DMSO were serially diluted in DMSO through nine 3-fold dilutions in 96-well plates (Costar Corning 3363), and stored at −80C. The next day, compound dilutions were thawed and 4 uL of each transferred to 662 uL RPMI 1640+100 ug/mL gentamicin, resulting in twice the final required test concentrations. 100 uL of compounds diluted in RPMI 1640 were added to all cell lines. The final concentration of DMSO in all wells, including controls, was 0.3%. Cells were incubated at 37C, 5% CO2 for 3 days. Medium was removed by aspiration. Cell biomass was estimated by staining cells with 80 uL methylene blue (Sigma M9140, 0.5% in 50:50 ethanol:water), and incubating at room temperature for 1 hour. Stain was aspirated and the plates rinsed by immersion in water, then air-dried. Stain was released from cells by adding 100 uL of solubilizing solution (1% N-lauroyl sarcosine, sodium salt, Sigma L5125, in PBS) and incubating at room temperature for at least 30 minutes. Plates were shaken and the optical density at 620 nm was measured on a microplate reader. Percent inhibition of cell growth was calculated relative to vehicle-treated control wells. Concentration of compound that inhibits 50% of cell growth (IC50) was interpolated using non-linear regression (Levenberg-Marquadt) and the equation, y=Vmax*(1−(x̂n/K̂n+x̂n)))+Y2. [Ref: Mager, M. E. (1972) Data Analysis in Biochemistry and Biophysics. New York: Academic Press]

[2] = test system: HFF (normal human foreskin fibroblast); assay: Methylene Blue Growth Inhibition Assay; type: cell-based; conditions: 72 h, 3 days
Description: as §1

[3] = test system: LNCaP (lymph node metastasis of prostate cancer); assay: Methylene Blue Growth Inhibition Assay; type: cell-based; conditions: Homo sapiens, 72 h, 3 days
Description: as §1

[4] = Solubility in 50 mM phosphate buffer at pH 7.4; type: physicochemical; conditions: aqueous buffer

| SMILES | IC50 [1] [µM] | IC50 [2] [µM] | IC50 [3] [µM] | solubility [4] [µM] |
| --- | --- | --- | --- | --- |
| CCn1c(-c2nonc2N)nc2c(C#CC(C)(C)O)ncc(OCC(F)CN)c21 (single isomer, unassigned) [Example 17, 4-[7-[(3-amino-2-(−)-fluoropropyl)oxy]-2-(4-amino-1,2,5-oxadiazol-3-yl)-1-ethyl-1H-imidazo[4,5-c]pyridin-4-yl]-2-methyl-3-butyn-2-ol] | 0.022 | 6.25 | 0.012 | 92 (≈ 37.1 µg/mL) |
| CCn1c(-c2nonc2N)nc2c(C#CC(C)(C)O)ncc(OCC[C@@H](N)C(C)C)c21 [Example 4, 4-[7-{[(3R)-3-amino-4-methylpentyl]oxy}-2-(4-amino-1,2,5-oxadiazol-3-yl)-1-ethyl-1H-imidazo[4,5-c]pyridin-4-yl]-2-methyl-3-butyn-2-ol] | 0.171 | 8.1 | 0.036 | 206 (≈ 88.1 µg/mL) |
| CCn1c(-c2nonc2N)nc2c(C#CC(C)(C)O)ncc(OCCCNC3CCCC3)c21 [Example 3, 4-(2-(4-amino-1,2,5-oxadiazol-3-yl)-7-{[3-(cyclopentylamino)propyl]oxy}-1-ethyl-1H-imidazo[4,5-c]pyridin-4-yl)-2-methyl-3-butyn-2-ol] | 0.295 | > 30 | 0.052 | 210 (≈ 95.2 µg/mL) |
| CCn1c(-c2nonc2N)nc2c(C#CC(C)(C)O)ncc(OCCCNCCc3ccc(OC)cc3)c21 [Compound Z, 4-(2-(4-amino-1,2,5-oxadiazol-3-yl)-1-ethyl-7-{[3-({2-[4-(methyloxy)phenyl]ethyl}amino)propyl]oxy}-1H-imidazo[4,5-c]pyridin-4-yl)-2-methyl-3-butyn-2-ol, reference compound] | – | 5.51 | – | – |
| CCn1c(-c2nonc2N)nc2c(C#CC(C)(C)O)ncc(OCCC(N)C3CCSCC3)c21 (single isomer, unassigned; (-)) [Example 14, (−)-4-(2-(4-amino-1,2,5-oxadiazol-3-yl)-7-{[3-amino-3-(tetrahydro-2H-thiopyran-4-yl)propyl]oxy}-1-ethyl-1H-imidazo[4,5-c]pyridin-4-yl)-2-methyl-3-butyn-2-ol] | 0.264 | 19.2 | 0.056 | 151 (≈ 73.3 µg/mL) |
| CCn1c(-c2nonc2N)nc2c(C#CC(C)(C)O)ncc(OCCCNCC3CC3)c21 [Example 10, 4-[2-(4-amino-1,2,5-oxadiazol-3-yl)-7-({3-[(cyclopropylmethyl)amino]propyl}oxy)-1-ethyl-1H-imidazo[4,5-c]pyridin-4-yl]-2-methyl-3-butyn-2-ol] | 0.249 | 17.5 | 0.066 | 140 (≈ 61.5 µg/mL) |
| CCn1c(-c2nonc2N)nc2c(C#CC(C)(C)O)ncc(OCCCN)c21 [Compound X, 4-{2-(4-amino-1,2,5-oxadiazol-3-yl)-7-[(3-aminopropyl)oxy]-1-ethyl-1H-imidazo[4,5-c]pyridin-4-yl}-2-methyl-3-butyn-2-ol, reference compound] | – | 18.1 | – | – |
| CCn1c(-c2nonc2N)nc2c(C#CC(C)(C)O)ncc(OCCCNC3CCC3)c21 [Example 5, 4-(2-(4-amino-1,2,5-oxadiazol-3-yl)-7-{[3-(cyclobutylamino)propyl]oxy}-1-ethyl-1H-imidazo[4,5-c]pyridin-4-yl)-2-methyl-3-butyn-2-ol] | 0.508 | 25.9 | 0.058 | 86 (≈ 37.8 µg/mL) |
| CCn1c(-c2nonc2N)nc2c(C#CC(C)(C)O)ncc(OCC3CCNCC3)c21 [Compound Y, 4-{2-(4-amino-1,2,5-oxadiazol-3-yl)-1-ethyl-7-[(4-piperidinylmethyl)oxy]-1H-imidazo[4,5-c]pyridin-4-yl}-2-methyl-3-butyn-2-ol, reference compound] | – | > 30 | – | – |
| CCn1c(-c2nonc2N)nc2c(C#CC(C)(C)O)ncc(OC[C@@H](C)CN)c21 [Example 8, 4-[7-{[(2S)-3-amino-2-methylpropyl]oxy}-2-(4-amino-1,2,5-oxadiazol-3-yl)-1-ethyl-1H-imidazo[4,5-c]pyridin-4-yl]-2-methyl-3-butyn-2-ol] | 0.202 | 22.4 | 0.053 | 141 (≈ 56.3 µg/mL) |
| CCn1c(-c2nonc2N)nc2c(C#CC(C)(C)O)ncc(OCC(CN)CC(C)C)c21 (stereo not shown) [Example 12, 4-[7-{[2-(aminomethyl)-4-methylpentyl]oxy}-2-(4-amino-1,2,5-oxadiazol-3-yl)-1-ethyl-1H-imidazo[4,5-c]pyridin-4-yl]-2-methyl-3-butyn-2-ol] | 0.556 | 26.4 | 0.081 | 164 (≈ 72.4 µg/mL) |
| CCn1c(-c2nonc2N)nc2c(C#CC(C)(C)O)ncc(OC[C@@H](C)CNC3CC3)c21 [Example 6, 4-(2-(4-amino-1,2,5-oxadiazol-3-yl)-7-{[(2S)-3-(cyclopropylamino)-2-methylpropyl]oxy}-1-ethyl-1H-imidazo[4,5-c]pyridin-4-yl)-2-methyl-3-butyn-2-ol] | 0.593 | 11.5 | 0.066 | 27 (≈ 11.9 µg/mL) |
| CCn1c(-c2nonc2N)nc2c(C#CC(C)(C)O)ncc(OCC[C@H](C)N)c21 [Example 9, 4-[7-{[(3S)-3-aminobutyl]oxy}-2-(4-amino-1,2,5-oxadiazol-3-yl)-1-ethyl-1H-imidazo[4,5-c]pyridin-4-yl]-2-methyl-3-butyn-2-ol] | 0.504 | 14.5 | 0.071 | 119 (≈ 47.5 µg/mL) |
| CCn1c(-c2nonc2N)nc2c(C#CC(C)(C)O)ncc(OCCCCN)c21 [Compound W, 4-[7-[(4-aminobutyl)oxy]-2-(4-amino-1,2,5-oxadiazol-3-yl)-1-ethyl-1H-imidazo[4,5-c]pyridin-4-yl}-2-methyl-3-butyn-2-ol, reference compound] | – | 22.1 | – | – |
| CCn1c(-c2nonc2N)nc2c(-c3ccccc3)ncc(OCCN3CCOCC3)c21 [Compound T, 4-(1-ethyl-7-([2-(4-morpholinyl)ethyl]oxy)-4-phenyl-1H-imidazo[4,5-c]pyridin-2-yl)-1,2,5-oxadiazol-3-amine, reference compound] | – | 18.9 | – | – |
| CCn1c(-c2nonc2N)nc2c(-c3ccccc3)ncc(OCCCN3CCOCC3)c21 [Compound R, 4-(1-ethyl-7-{[3-(4-morpholinyl)propyl]oxy}-4-phenyl-1H-imidazo[4,5-c]pyridin-2-yl)-1,2,5-oxadiazol-3-amine, reference compound] | – | 19.9 | – | – |
| CCn1c(-c2nonc2N)nc2c(-c3ccccc3)ncc(OCC3CCCNC3)c21 (stereo not shown) [Compound V, 4-{1-ethyl-4-phenyl-7-[(3-piperidinylmethyl)oxy]-1H-imidazo-[4,5-c]pyridin-2-yl}-1,2,5-oxadiazol-3-amine, reference compound] | – | 0.57 | – | – |
| CCn1c(-c2nonc2N)nc2cncc(OC3CCNCC3)c21 [Compound U, 4-[1-ethyl-7-(piperidin-4-yloxy)-1H-imidazo[4,5-c]pyridine-2-yl]-furazan-3-ylamine, reference compound] | – | 6.47 | – | – |
| CCn1c(-c2nonc2N)nc2c(-c3ccccc3)ncc(OCC(O)CN3CCOCC3)c21 (stereo not shown) [Compound S, 1-{[2-(4-amino-1,2,5-oxadiazol-3-yl)-1-ethyl-4-phenyl-1H-imidazo[4,5-c]pyridin-7-yl]oxy}-3-(4-morpholinyl)-2-propanol, reference compound] | – | > 30 | – | – |
